pIC50, pKi: −log10 of the molar value. Read-outs that look alike come from different tables or passages of the source.
Legend:
[1] = target: T1, recombinant RORγ Ligand Binding Domain (LBD) protein (Homo sapiens, UniProt P51449); test: Radio-Ligand RORγ Binding Assay (Assay 1); settings: radio-ligand competition, RORγ LBD, read-out: Avg ROR Bind Ki
T1 construct: 6×His; GST
T1 sequence (P51449 269-508 limits assumed): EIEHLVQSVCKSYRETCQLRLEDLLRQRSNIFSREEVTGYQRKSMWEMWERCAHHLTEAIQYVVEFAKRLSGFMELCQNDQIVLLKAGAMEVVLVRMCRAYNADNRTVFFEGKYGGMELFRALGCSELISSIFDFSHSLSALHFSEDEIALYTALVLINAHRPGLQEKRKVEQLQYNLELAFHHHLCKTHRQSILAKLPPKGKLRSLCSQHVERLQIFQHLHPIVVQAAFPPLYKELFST
Method in brief: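 Cell-free SPA competition between compound and 25-hydroxy[26,27-^3H]-cholesterol for 6×His-GST-tagged RORγ LBD in 50 mM HEPES pH 7.4 with NaCl, MgCl2, glycerol, CHAPS, octylglucoside and DTT. Mix was shaken 20 min, held 10 min at rt, then read after poly-Lys YSi beads. IC50 came from a four-parameter fit, and Ki from radioligand KD.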

[2] = target: T2, full-length RORγt in Jurkat cells (Homo sapiens, UniProt P51449); test: RORγt 5×RORE Assay in Jurkat Cells (Assay 2); format: cell-based; settings: 5×RORE luciferase reporter
T2 construct: transcriptional activity of the full-length RORγt in Jurkat cells; host or cells: Jurkat cells (ATCC TIB-152)
T2 sequence (P51449 1-497 isoform P51449-2): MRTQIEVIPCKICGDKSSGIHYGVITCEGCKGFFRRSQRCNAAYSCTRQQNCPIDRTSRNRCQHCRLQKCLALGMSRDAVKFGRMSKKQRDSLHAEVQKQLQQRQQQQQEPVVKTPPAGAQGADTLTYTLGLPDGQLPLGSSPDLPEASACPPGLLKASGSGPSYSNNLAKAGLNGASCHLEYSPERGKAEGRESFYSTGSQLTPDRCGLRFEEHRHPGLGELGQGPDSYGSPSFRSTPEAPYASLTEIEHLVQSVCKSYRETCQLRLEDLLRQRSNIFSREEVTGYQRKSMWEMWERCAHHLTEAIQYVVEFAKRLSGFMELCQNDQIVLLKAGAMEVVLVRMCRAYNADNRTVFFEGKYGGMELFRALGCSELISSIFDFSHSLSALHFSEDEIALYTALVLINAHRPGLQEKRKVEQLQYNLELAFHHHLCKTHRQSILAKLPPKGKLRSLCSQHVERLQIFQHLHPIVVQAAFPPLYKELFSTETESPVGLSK
Experimental: [formula] RORγt 5×RORE Assay in Jurkat Cells (Assay 2)
Compounds described herein were tested for RORγ inverse agonist activity in a cell-based, transcriptional activity assay. Secreted Nanoluc″ luciferase was used as a reporter for transcriptional activity of the full-length RORγt in Jurkat cells (ATCC, Cat. #TIB-152). A reporter plasmid was constructed by inserting 5 repeats of the ROR Response Element (RORE) […] (SEQ ID NO: 1) into a commercially available promoterless plasmid pNL1.3[secNluc] (Promega, Cat. #N1021) using KpnI and HindIII restriction sites. The expression plasmid for RORγt was purchased (Geneocopoeia, Cat. #EX-T6988-M02). Jurkat cells (30 million cells) were transfected with 11 μg of EX-T6988-MO2 and 26 μg of the reporter plasmid in OptiMEM® media using Lipofectamine LTX and Plus™ reagents (Life Technologies, Cat. #15338-100). After 5-6 hrs of incubation at 37° C./5% CO2, the cells were collected, resuspended in phenol-red free RPMI media containing 10% (v/v) delipidated FBS (Hyclone, Cat. #SH30855.03) and dispensed into 96-well clear bottom tissue culture plates (CoStar, Cat. #3603), at 80,000 cells per well. Tested compounds were added to the cells in the same media (final concentration of DMSO was 0.1% (v/v)), and the plates were incubated at 37° C./5% CO2 for 16-18 hrs. Luciferase activity in the conditioned supernatants was determined with NanoGlo® assay reagents (Promega, Cat. #N1130).

[3] = 25-hydroxy [26,27-3H]-cholesterol
[4] = Table 20, read-out: Avg ROR γt/5x IC5

Row | pKi [1, 3] | pIC50 [2, 4] | pIC50 ([2]; read-out: Avg ROR γt/5x IC50) | pKi ([1]; head without unit (Tables 15, 17)) | pIC50 ([2]; head without unit (Tables 15, 17), read-out: Avg ROR γt/5x IC50) | Structure (SMILES)
1 | > 7.00 | – | > 7.00 | – | – | CCS(=O)(=O)c1ccc([C@H](CO)NC(=O)c2ccc3c(OC[C@H]4CC[C@H](C(F)(F)F)CC4)nc(C)cc3c2)cc1 [Hy1A-10, N-((R)-1-(4-(ethylsulfonyl)phenyl)-2-hydroxyethyl)-3-methyl-1-(((1r,4R)-4-(trifluoromethyl)cyclohexyl)methoxy)isoquinoline-6-carboxamide]
2 | > 7.00 | > 7.00 | – | – | – | CC[C@@H]1CN(c2ncc(C(F)(F)F)cn2)Cc2cc(C(=O)N[C@@H](CO)c3ccc(S(=O)(=O)CC)cn3)ccc21 (single isomer, unassigned) [Hy7-18.1]
3 | > 7.00 | – | 6.00 to 7.00 | – | – | CCS(=O)(=O)c1ccc(CNC(=O)c2sc3nc(C)nc(OC[C@H]4CC[C@H](C(F)(F)F)CC4)c3c2C)cc1 [Hy6-2, N-(4-(ethylsulfonyl)benzyl)-2,5-dimethyl-4-(((1r,4r)-4-(trifluoromethyl)cyclohexyl)methoxy)thieno[2,3-d]pyrimidine-6-carboxamide]
4 | > 7.00 | < 6.00 | – | – | – | CCS(=O)(=O)c1ccc(CNC(=O)c2ccc3c(c2)CN(Cc2ccc(F)cc2)C[C@H]3C(C)C)cc1 (single isomer, unassigned) [Hy7-27.1]
5 | > 7.00 | < 6.00 | – | – | – | CCS(=O)(=O)c1ccc(CNC(=O)c2ccc3c(c2)CN(Cc2ccc(Cl)cc2)C[C@H]3C(C)C)cc1 (single isomer, unassigned) [Hy7-29.1]
6 | > 7.00 | – | > 7.00 | – | – | CCS(=O)(=O)c1ccc(CNC(=O)c2ccc3c(c2)CCN(Cc2ccc(C#N)cn2)[C@H]3C(C)C)cc1 (single isomer, unassigned) [Hy2A-16.1]
7 | > 7.00 | – | 6.00 to 7.00 | – | – | CCS(=O)(=O)c1ccc(CNC(=O)c2ccc3c(c2)CCN(Cc2ncc(Br)cn2)[C@H]3C(C)C)cc1 (single isomer, unassigned) [Hy2A-26.1]
8 | > 7.00 | – | 6.00 to 7.00 | – | – | CCS(=O)(=O)c1ccc([C@H](CO)NC(=O)c2ccc3c(OCc4ccc(F)cc4)nc(C)cc3c2)cc1 [Hy1A-13, (R)-N-(1-(4-(ethylsulfonyl)phenyl)-2-hydroxyethyl)-1-((4-fluorobenzyl)oxy)-3-methylisoquinoline-6-carboxamide]
9 | 6.00 to 7.00 | – | 6.00 to 7.00 | – | – | CCS(=O)(=O)c1ccc(CNC(=O)c2ccc3c(c2)CCN(Cc2ncc(C)cn2)[C@H]3C(C)C)cc1 (single isomer, unassigned) [Hy2A-12.1]

Second part, the molecule before the results:

Row | Structure (SMILES) | pKi [1, 3] | pIC50 [2, 4] | pIC50 ([2]; read-out: Avg ROR γt/5x IC50) | pKi ([1]; head without unit (Tables 15, 17)) | pIC50 ([2]; head without unit (Tables 15, 17), read-out: Avg ROR γt/5x IC50)
10 | CCS(=O)(=O)c1ccc(CNC(=O)c2ccc3c(c2)CN(c2ncc(-c4ccn(C)c(=O)c4)cn2)C[C@H]3C(C)C)cc1 (single isomer, unassigned) [Hy7-25.1] | > 7.00 | 6.00 to 7.00 | – | – | –
11 | CCS(=O)(=O)c1ccc([C@@H](CO)NC(=O)c2ccc3c(OC[C@H]4CC[C@H](C(F)(F)F)CC4)nc(C)cc3c2)cc1 [Hy1A-16, N-((S)-1-(4-(ethylsulfonyl)phenyl)-2-hydroxyethyl)-3-methyl-1-(((1r,4S)-4-(trifluoromethyl)cyclohexyl)methoxy)isoquinoline-6-carboxamide] | > 7.00 | – | > 7.00 | – | –
12 | CCS(=O)(=O)c1ccc(CNC(=O)c2ccc3c(c2)CCN(Cc2ccc(Cl)cn2)C3C(C)C)cc1 (racemic) [Hy2A-21, 2-((5-chloropyridin-2-yl)methyl)-N-(4-(ethylsulfonyl)benzyl)-1-isopropyl-1,2,3,4-tetrahydroisoquinoline-6-carboxamide] | > 7.00 | – | > 7.00 | – | –
13 | CCS(=O)(=O)c1ccc(CNC(=O)c2ccc3c(c2)CN(c2ncc(F)cn2)C[C@@H]3C(C)C)cc1 (single isomer, unassigned) [Hy7-1.2] | > 7.00 | < 6.00 | – | – | –
14 | CC[C@H]1CN(c2ncc(Cl)cn2)Cc2cc(C(=O)N[C@@H](CO)c3ccc(S(=O)(=O)CC)cc3)ccc21 (single isomer, unassigned) [Hy7-6.2] | > 7.00 | < 6.00 | – | – | –
15 | CCS(=O)(=O)c1ccc(CNC(=O)c2cnc3c(C4CC4)n(C[C@H]4CC[C@H](C(F)(F)F)CC4)nc3c2)cc1 [Hy3B-2, 3-cyclopropyl-N-(4-(ethylsulfonyl)benzyl)-2-(((1r,4r)-4-(trifluoromethyl)cyclohexyl)methyl)-2H-pyrazolo[4,3-b]pyridine-6-carboxamide] | > 7.00 | – | > 7.00 | – | –
16 | CCS(=O)(=O)c1ccc(CNC(=O)c2ccc3c(OC[C@H]4CC[C@H](C(F)(F)F)CC4)nc(C)cc3c2)cc1 [Hy1A-6, N-(4-(ethylsulfonyl)benzyl)-3-methyl-1-(((1r,4r)-4-(trifluoromethyl)cyclohexyl)methoxy)isoquinoline-6-carboxamide] | > 7.00 | – | > 7.00 | – | –
17 | CCS(=O)(=O)c1ccc(CNC(=O)c2cnc3c(c2)CCN(Cc2ccc(C#N)cc2)C3C(C)C)cc1 (single isomer, unassigned) [Hy2B-7.1] | – | – | – | > 7.00 | 6.00 to 7.00
18 | CCS(=O)(=O)c1ccc([C@H](CO)NC(=O)c2ccc3c(OCc4ccc(C(F)(F)F)cc4)cc(C)nc3c2)cc1 [Hy1B-3, (R)-N-(1-(4-(ethylsulfonyl)phenyl)-2-hydroxyethyl)-2-methyl-4-((4-(trifluoromethyl)benzyl)oxy)quinoline-7-carboxamide] | > 7.00 | – | 6.00 to 7.00 | – | –
19 | CC[C@@H]1CN(c2ncc(Cl)cn2)Cc2cc(C(=O)N[C@@H](CO)c3ccc(S(=O)(=O)CC)cc3)ccc21 (single isomer, unassigned) [Hy7-6.1] | > 7.00 | < 6.00 | – | – | –
20 | CCC1c2ccc(C(=O)NC(CO)c3ccc(S(=O)(=O)CC)cc3)cc2CCN1CC1CCC(C(F)(F)F)CC1 (single isomer, unassigned) [Hy2A-28.2] | > 7.00 | – | 6.00 to 7.00 | – | –
21 | CCS(=O)(=O)c1ccc([C@H](CO)NC(=O)c2ccc3c(COc4ccc(C(F)(F)F)cc4)nccc3c2)cc1 [Hy1A-24, (R)-N-(1-(4-(ethylsulfonyl)phenyl)-2-hydroxyethyl)-1-((4-(trifluoromethyl)phenoxy)methyl)isoquinoline-6-carboxamide] | > 7.00 | – | 6.00 to 7.00 | – | –
22 | CCS(=O)(=O)c1ccc(CNC(=O)c2ccc3c(c2)CN(c2ncc(Cl)cn2)C[C@H]3C(C)C)cc1 (single isomer, unassigned) [Hy7-3.1] | > 7.00 | 6.00 to 7.00 | – | – | –
23 | CCS(=O)(=O)c1ccc([C@H](CO)NC(=O)c2ccc3c(OC[C@H]4CC[C@H](C(F)(F)F)CC4)nc(C)cc3c2)nc1 (single isomer, unassigned) [Hy1A-22.1] | > 7.00 | – | > 7.00 | – | –
24 | CCS(=O)(=O)c1ccc(CNC(=O)c2ccc3c(c2)C(C)(C)CN(Cc2cnc(C)cn2)[C@H]3C(C)C)cc1 (single isomer, unassigned) [Hy2A-22.1] | > 7.00 | – | 6.00 to 7.00 | – | –
25 | CCC1CN(c2ncc(C(F)(F)F)cn2)Cc2cc(C(=O)N[C@@H](CO)c3ccc(S(=O)(=O)CC)cc3)ccc21 (single isomer, unassigned) [Hy7-17.2] | > 7.00 | < 6.00 | – | – | –
26 | CCOC(=O)c1cnc(N2CCc3cc(C(=O)NCc4ccc(S(=O)(=O)CC)cc4)ccc3[C@@H]2C(C)C)nc1C(F)(F)F (single isomer, unassigned) [Hy2A-5.1] | > 7.00 | – | 6.00 to 7.00 | – | –
27 | CCS(=O)(=O)c1ccc(CNC(=O)c2cn(C)c3c(OCc4ccc(C(F)(F)F)cc4)nccc23)cc1 [Hy5-3, N-(4-(ethylsulfonyl)benzyl)-1-methyl-7-((4-(trifluoromethyl)benzyl)oxy)-1H-pyrrolo[2,3-c]pyridine-3-carboxamide] | > 7.00 | – | > 7.00 | – | –

Reference: patent US11008340B2, “Modulators of ROR-gamma” (Vitae Pharmaceuticals, LLC, priority 2015, dated 2021)
